Data taken from BindingDB's records for doi:10.1016/j.chembiol.2015.08.013 (Aston University, 2015).

Legend:
Test in all cases: TG Activity Assays
[1] = target: T1, Protein-glutamine gamma-glutamyltransferase K (Homo sapiens, UniProt P22735)
T1 sequence (P22735 whole entry): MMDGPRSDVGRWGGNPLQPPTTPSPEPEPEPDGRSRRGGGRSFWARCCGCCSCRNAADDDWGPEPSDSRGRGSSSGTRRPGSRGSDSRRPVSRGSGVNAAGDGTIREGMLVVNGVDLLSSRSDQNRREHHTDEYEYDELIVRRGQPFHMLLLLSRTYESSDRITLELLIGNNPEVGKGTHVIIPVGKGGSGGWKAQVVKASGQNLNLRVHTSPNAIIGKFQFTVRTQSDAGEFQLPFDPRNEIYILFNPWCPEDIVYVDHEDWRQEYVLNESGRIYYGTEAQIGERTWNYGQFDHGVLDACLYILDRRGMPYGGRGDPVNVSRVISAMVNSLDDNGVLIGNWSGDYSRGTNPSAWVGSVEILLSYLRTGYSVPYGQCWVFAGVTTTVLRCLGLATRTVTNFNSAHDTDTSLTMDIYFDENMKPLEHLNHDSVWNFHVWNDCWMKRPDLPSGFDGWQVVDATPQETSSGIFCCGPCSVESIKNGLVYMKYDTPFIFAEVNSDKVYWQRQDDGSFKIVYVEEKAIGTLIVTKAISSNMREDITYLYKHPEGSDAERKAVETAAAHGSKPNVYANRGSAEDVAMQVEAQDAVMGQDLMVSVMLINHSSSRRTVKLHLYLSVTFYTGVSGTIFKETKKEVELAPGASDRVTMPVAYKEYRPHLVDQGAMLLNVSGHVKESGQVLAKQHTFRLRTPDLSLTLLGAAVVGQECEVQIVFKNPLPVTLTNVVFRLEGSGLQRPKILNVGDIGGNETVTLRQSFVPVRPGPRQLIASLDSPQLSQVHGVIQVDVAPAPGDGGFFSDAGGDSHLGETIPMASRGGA
Protocol: (§1) The incorporated biotinylated peptides were measured using horseradish peroxidase-conjugated streptavidin and then measured using o-phenylenediamine dihydrochloride substrates. The absorbance was measured at 490 nm using a microplat

[2] = target: T2, Protein-glutamine gamma-glutamyltransferase E (Homo sapiens, UniProt Q08188)
T2 sequence (Q08188 whole entry): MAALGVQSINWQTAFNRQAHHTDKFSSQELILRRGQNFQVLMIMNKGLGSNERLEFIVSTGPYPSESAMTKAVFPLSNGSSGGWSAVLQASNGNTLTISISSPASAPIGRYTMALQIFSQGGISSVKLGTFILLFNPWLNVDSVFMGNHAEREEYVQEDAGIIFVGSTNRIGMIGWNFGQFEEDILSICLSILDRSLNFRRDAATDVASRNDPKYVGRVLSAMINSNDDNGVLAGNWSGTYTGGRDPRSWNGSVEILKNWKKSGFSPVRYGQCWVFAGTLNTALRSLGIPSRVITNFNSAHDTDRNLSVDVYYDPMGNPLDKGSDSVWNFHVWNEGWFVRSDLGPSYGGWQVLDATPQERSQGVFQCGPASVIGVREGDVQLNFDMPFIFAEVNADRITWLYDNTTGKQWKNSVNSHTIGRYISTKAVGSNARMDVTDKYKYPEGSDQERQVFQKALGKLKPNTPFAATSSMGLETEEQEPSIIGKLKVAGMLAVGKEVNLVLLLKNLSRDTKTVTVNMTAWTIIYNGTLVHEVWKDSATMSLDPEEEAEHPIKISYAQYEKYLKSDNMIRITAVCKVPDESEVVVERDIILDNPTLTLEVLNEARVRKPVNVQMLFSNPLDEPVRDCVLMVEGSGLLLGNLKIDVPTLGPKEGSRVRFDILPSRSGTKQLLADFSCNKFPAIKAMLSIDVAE
Protocol: as §1

[3] = target: T3, Protein-glutamine gamma-glutamyltransferase 6 (Homo sapiens, UniProt O95932)
T3 sequence (O95932 whole entry): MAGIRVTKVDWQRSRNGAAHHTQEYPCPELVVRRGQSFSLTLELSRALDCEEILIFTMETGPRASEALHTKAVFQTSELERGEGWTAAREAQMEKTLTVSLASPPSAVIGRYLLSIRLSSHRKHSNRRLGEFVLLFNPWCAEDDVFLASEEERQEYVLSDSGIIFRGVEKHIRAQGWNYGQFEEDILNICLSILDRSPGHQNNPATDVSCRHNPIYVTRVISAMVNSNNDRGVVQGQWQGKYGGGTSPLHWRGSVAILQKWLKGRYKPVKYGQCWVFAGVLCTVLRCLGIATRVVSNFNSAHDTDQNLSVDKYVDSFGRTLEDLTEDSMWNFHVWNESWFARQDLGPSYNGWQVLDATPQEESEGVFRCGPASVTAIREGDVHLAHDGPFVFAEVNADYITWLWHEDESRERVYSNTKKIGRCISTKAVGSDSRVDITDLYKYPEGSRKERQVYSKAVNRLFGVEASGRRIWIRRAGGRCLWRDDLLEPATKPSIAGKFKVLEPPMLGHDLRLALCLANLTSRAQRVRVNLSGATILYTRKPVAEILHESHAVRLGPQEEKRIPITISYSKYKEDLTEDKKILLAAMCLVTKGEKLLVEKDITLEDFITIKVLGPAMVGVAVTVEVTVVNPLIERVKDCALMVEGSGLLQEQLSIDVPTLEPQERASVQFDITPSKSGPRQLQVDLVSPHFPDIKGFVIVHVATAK
Protocol: as §1

[4] = target: T4, Protein-glutamine gamma-glutamyltransferase 2 (Homo sapiens, UniProt P21980)
T4 sequence (P21980 whole entry): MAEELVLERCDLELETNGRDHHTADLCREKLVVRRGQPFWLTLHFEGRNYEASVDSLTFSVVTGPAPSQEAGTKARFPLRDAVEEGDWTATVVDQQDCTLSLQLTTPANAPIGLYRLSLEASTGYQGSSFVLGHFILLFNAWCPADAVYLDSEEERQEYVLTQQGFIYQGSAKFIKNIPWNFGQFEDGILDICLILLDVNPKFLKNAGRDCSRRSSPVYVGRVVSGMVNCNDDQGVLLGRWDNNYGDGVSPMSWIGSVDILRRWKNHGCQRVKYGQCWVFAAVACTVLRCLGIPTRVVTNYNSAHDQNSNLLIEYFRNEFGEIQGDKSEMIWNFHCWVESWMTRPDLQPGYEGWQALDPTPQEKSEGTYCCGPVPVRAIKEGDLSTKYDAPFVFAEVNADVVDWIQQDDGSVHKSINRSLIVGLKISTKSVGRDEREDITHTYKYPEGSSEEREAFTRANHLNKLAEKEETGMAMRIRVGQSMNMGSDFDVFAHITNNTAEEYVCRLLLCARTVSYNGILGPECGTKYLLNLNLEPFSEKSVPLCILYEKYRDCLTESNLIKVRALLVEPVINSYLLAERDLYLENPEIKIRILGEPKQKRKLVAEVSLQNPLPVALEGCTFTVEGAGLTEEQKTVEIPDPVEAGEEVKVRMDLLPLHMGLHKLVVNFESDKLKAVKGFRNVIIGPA
Protocol: as §1

Row | SMILES | IC50 [1] [µM] | IC50 [2] [µM] | IC50 [3] [µM] | IC50 [4] [µM]
1 | C=CC(=O)NCC(=O)N1CCN(C(=O)OCC23CC4CC(CC(C4)C2)C3)CC1 [1-Adamantylmethyl 4-[2-(prop-2-enoylamino)acetyl]piperazine-1-carboxylate (3f)] | > 100 | > 100 | > 10 | 
2 | C=CC(=O)NCC(=O)N1CCN(C(=O)C23CC4CC(CC(C4)C2)C3)CC1 [N-[2-[4-(adamantane-1-carbonyl)piperazin-1-yl]-2-oxo-ethyl]prop-2-enamide (3e)] | 2.2 | 11 | 2 | 0.125
3 | C[S+](C)CC(=O)NCC(=O)N1CCN(C(=O)OCC23CC4CC(CC(C4)C2)C3)CC1 [[2-[[2-[4-(1-Adamantylmethoxycarbonyl)piperazin-1-yl]-2-oxo-ethyl]amino]-2-oxoethyl]-dimethyl-sulfonium bromide (1f)] | > 100 | > 100 | > 10 | 0.775
4 | C[S+](C)CC(=O)NCC(=O)N1CCN(C(=O)C23CC4CC(CC(C4)C2)C3)CC1 [[2-[[2-[4-(Adamantane-1-carbonyl)piperazin-1-yl]-2-oxo-ethyl]amino]-2-oxo-ethyl]-dimethyl-sulfonium bromide (1e)] | > 100 | > 100 | > 10 | 0.889
5 | CN(C)c1cccc2c(S(=O)(=O)N3CCN(C(=O)CNC(=O)C[S+](C)C)CC3)cccc12 [[2-[[2-[4-[[5-(Dimethylamino)-1-naphthyl]sulfonyl]piperazin-1-yl]-2-oxo-ethyl]amino]-2-oxo-ethyl]-dimethyl-sulfonium bromide (1h)] | > 100 | > 100 | > 10 | 
